Series [1] in a line: Visual clarity of aqueous concentrate and dilutions. Format: physicochemical. Conditions: for appearance of dilutions with water: dilution ratios as stated in each example; for appearance / dissolution of the aqueous concentrate: undiluted composition as prepared. From the text: FIG. 2 summarizes a method that can be used for optimization. Once the components are identified, optimization may be performed by preparing several mixtures of the components in different ratios and observing the phase behavior. Plot the compositions producing clear systems for concentrate and dilutions and identify regions in the triangular composition space. For a fixed amount of the hydrophobic material or active ingredient, vary the ratios of the surfactant and polymer in water. Alternately, vary the concentration of the hydrophobic material or active ingredient, polymer and surfactant in different ratio and make up to 100% in water and plot the compositions providing clear systems for the concentrate and for dilutions.

Series [2] is described as follows: Critical micelle concentration by surface tension. Format: physicochemical. The conditions noted are these: in water. The source says:
Suitable polymer is selected by first determining the surface tension concentration profile of the surfactant and evaluating the CMC. This is done by preparing standard solutions of the surfactant in water at different concentration and dilutions and measuring surface tension of the solutions and plotting the data as shown in FIG. 1. Surface tension may be measured using a typical Tensiometer [DuNuoy Tensiometer, Surface Tensiomat, Fisher with a platinum ring with a mean circumference of 6 cm, and a ring/wire radius ratio of 53.8. As an example: starting with 1% solution of a typical surfactant like SDS, serial dilutions are made by diluting appropriate amounts of the 1% stock solution and diluting to 0.5%, 0.2%, 0.1% and 0.05, 0.02, 0.01, 0.005, 0.002, by adding appropriate amounts of de-ionized water to a weighed quantity of the stock solution. FIG. 1 is a plot of concentration in moles per liter of the SDS and surface tension at 25° C.

Series [3] can be described thus: Solubility / solubilization of Triclosan in water and SDS solutions. Format: physicochemical. Conditions: SDS alone, no PVP. The method, then:
This concentrate was serially diluted at 3/10, 2.5/10, 2/10, 1.5/10, 1/10, 0.8/10, 0.6/10, 0.4/10 with water. […] Minimum amount of SDS required to solubilize 0.075%-0.09% Triclosan was ˜0.4-0.5% range SDS. This corresponds to about two-three times the CMC for SDS, which was determined to be about 0.17%.

The conditions of series [4]: cited from earlier work.
Series [5] can be described thus: Particle size by Dynamic Light Scattering. The format is physicochemical. Conditions: active in SDS/PVP K-30 aqueous systems and dilutions. The source says:
The hydrophobic material is present in the composition as an emulsion or a dispersion. The particle size of the hydrophobic material in the composition typically falls within the range of from about 5 to 1000 nm, more particularly from about 5 to 500 nm, still more particularly from about 10 to 100 nm and in accordance with certain embodiments from about 10 to 30 nm. Particle size refers to average particle radius and can be determined using dynamic light scattering techniques and equipment known to those of skill in the art. The compositions in accordance with certain aspects of the invention are visually clear due primarily to the small particle size of the hydrophobic material. Optical clarity can be measured using a turbidimeter or nephelometer.

The structures appear in SMILES notation.

As to `CCOC(=O)c1ccc(O)cc1` [ethylparaben], in series [1], the “appearance of dilutions with water” value is reported as “clear solutions” and the “appearance / dissolution of the aqueous concentrate” value is recorded as “clear solutions”.
`COC(=O)c1ccc(O)cc1` [methylparaben]: in series [1], the “appearance of dilutions with water” value is given as “clear solutions” and the “appearance / dissolution of the aqueous concentrate” value is given as “clear solutions”.
Consider `CCCCCCCCCCCCOS(=O)(=O)[O-].[Na+]` [SDS, sodium dodecylsulfate], for which the CMC result in series [2] is reported as “about 0.17%”.
For the molecule `Oc1cc(Cl)ccc1Oc1ccc(Cl)cc1Cl` [Triclosan], in series [3], the “Minimum amount of SDS required to solubilize 0.075%-0.09% Triclosan” value is recorded as 0.4-0.5 % SDS, the “Minimum amount of SDS to solubilize 0.3% Triclosan in water” value is on record as approximately 2 % SDS and the “level of SDS required to solubilize 3% Triclosan” value is 25%. The solubility in water in series [4] is recorded as 10 ppm. For the same molecule, the “particle size (radius)” value in series [5] is listed as 10-30 nm.

(Values after patent US20100260691A1, “Aqueous compositions containing a hydrophobic material” (priority 2006, published 2010).)
